Some test systems named below: A498 renal; A549 NSCLC; EKVX NSCLC; HCC-2998 colon; HCT-15 colon; HL-60(TB) leukemia; MALME-3M melanoma; MOLT-4 leukemia; OVCAR-3 ovarian; RPMI-8226 leukemia; SW-620 colon; U251 CNS; UACC-257 melanoma; MDA-MB-231 breast; NCI-H522 lung; SF-539 CNS.
Assay in all cases: DTP human tumour cell line panel, 48 h

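Step 1: Grow cells in 96-well plates. Step 2: Expose to compound for 48 hours at 5 concentrations. Step 3: Interpolate endpoints linearly; if unreached, use highest concentration. Here, GI50 denotes the concentration required for 50% inhibition of growth. At the TGI there is no net growth.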

On to `NC(=O)N1N=C2c3ccccc3SC[C@H]2[C@@H]1c1ccccc1`, for which the TGI in the test on A498 renal was 76.9 µM; with A549 NSCLC it was over 100 µM; in the test on EKVX NSCLC it was over 100 µM; in the test with HCC-2998 colon, over 100 µM; with HCT-15 colon, over 100 µM; with HL-60(TB) leukemia, 55 µM. Further, the TGI with MALME-3M melanoma is over 100 µM; in the test with MOLT-4 leukemia, 77.4 µM; in the test on OVCAR-3 ovarian, 35.1 µM; in the test on RPMI-8226 leukemia, 87.5 µM; with SW-620 colon, over 100 µM; with U251 CNS, 50.4 µM. The TGI with UACC-257 melanoma is 54 µM.

For `COc1ccccc1N1CCN(Cn2c(=O)oc3cccnc32)CC1`, the TGI in the test with A498 renal, in the test with A549 NSCLC, in the test on EKVX NSCLC, in the test with HCC-2998 colon, in the test on HCT-15 colon and in the test on HL-60(TB) leukemia was over 100 µM throughout. Moreover, the TGI in the test on MALME-3M melanoma, in the test on MDA-MB-231 breast, in the test with MOLT-4 leukemia, in the test with NCI-H522 lung, with OVCAR-3 ovarian and in the test on RPMI-8226 leukemia was over 100 µM each time. Also, the TGI with SF-539 CNS, in the test with SW-620 colon, with U251 CNS and with UACC-257 melanoma was over 100 µM each time.

Turning to `COc1ccc(CC2NC(=O)/C=C/CC(C(C)C3OC3c3ccccc3)OC(=O)C(CC(C)C)OC(=O)C(C)CNC2=O)cc1Cl` (centres undefined), the TGI in the test with A498 renal is 3.66e-05 µM; in the test on A549 NSCLC it was over 0.1 µM; in the test with HCC-2998 colon, 0.00259 µM; in the test with HCT-15 colon it was over 0.1 µM; with MALME-3M melanoma, over 0.1 µM; with MDA-MB-231 breast, 3.5e-05 µM. Further, the total growth inhibition concentration (TGI) was over 0.1 µM in the test on NCI-H522 lung; 0.000584 µM in the test with OVCAR-3 ovarian; over 0.1 µM with RPMI-8226 leukemia; 4.43e-05 µM in the test on SF-539 CNS; over 0.1 µM in the test on SW-620 colon; over 0.1 µM in the test on U251 CNS. In the test on UACC-257 melanoma, this compound returned a TGI of over 0.1 µM.

In the case of `COc1cc(CNc2ccc(C(C)C)cc2)cc(OC)c1OC`, the TGI is 67.7 µM in the test with A498 renal; 34.2 µM in the test with A549 NSCLC; over 100 µM with EKVX NSCLC; 31.2 µM in the test with HCT-15 colon; 45.6 µM with MALME-3M melanoma; 73 µM in the test on MOLT-4 leukemia. The TGI was found to be 24 µM with NCI-H522 lung; 33.4 µM in the test on OVCAR-3 ovarian; 38.2 µM with RPMI-8226 leukemia; 35.8 µM in the test with SF-539 CNS; 29.7 µM with U251 CNS; 61.7 µM with UACC-257 melanoma. Also, the GI50 was 11.1 µM in the test with NCI-H522 lung and 16.3 µM with OVCAR-3 ovarian.

For the compound `O=C(CSC(=S)N1CCOCC1)Nc1nc2c(s1)CCCC2`, the TGI in the test on A498 renal is over 100 µM; in the test on A549 NSCLC, over 100 µM; in the test with EKVX NSCLC, over 100 µM; in the test with HCC-2998 colon, 61.2 µM; with HCT-15 colon, over 100 µM; with HL-60(TB) leukemia, over 100 µM. The TGI in the test with MALME-3M melanoma was over 100 µM; in the test with MOLT-4 leukemia, over 100 µM; with NCI-H522 lung it was 70.2 µM; with OVCAR-3 ovarian it was over 100 µM; in the test with RPMI-8226 leukemia it was over 100 µM; with SF-539 CNS, over 100 µM. The TGI with U251 CNS and in the test with UACC-257 melanoma was over 100 µM in each case.

With `CC(C)C1CC(O)O[C@@H]([C@@H](C)[C@H]2CC(=O)[C@@H]3[C@@H]4[C@@H](O)[C@H](O)[C@H]5[C@@H](O)[C@H](O)CC[C@]5(C)[C@H]4CC[C@]23C)C1` (some centres undefined), the TGI in the test with A549 NSCLC, in the test on EKVX NSCLC, with HCC-2998 colon, in the test on HCT-15 colon, in the test with HL-60(TB) leukemia and with MALME-3M melanoma was over 100 µM in each case. Further, the TGI in the test on MOLT-4 leukemia, in the test with NCI-H522 lung, in the test with OVCAR-3 ovarian, with SF-539 CNS, with SW-620 colon and in the test with U251 CNS was over 100 µM throughout. The compound further came in with a concentration for total growth inhibition (TGI) in the test on UACC-257 melanoma of over 100 µM.

`CCC(CC)n1c(C)nc2c1C(=O)c1ccccc1C2=O`: the TGI in the test with A549 NSCLC is over 100 µM; in the test with EKVX NSCLC, over 100 µM; in the test on HCC-2998 colon it was over 100 µM; in the test with HCT-15 colon it was over 100 µM; in the test with HL-60(TB) leukemia, over 100 µM; in the test with MALME-3M melanoma, 73.6 µM. The TGI in the test with MOLT-4 leukemia is over 100 µM; in the test on NCI-H522 lung, over 100 µM; in the test on OVCAR-3 ovarian, 75.7 µM; in the test with SF-539 CNS it was over 100 µM; in the test with SW-620 colon it was over 100 µM; with U251 CNS, over 100 µM. In the test on UACC-257 melanoma, the TGI stood at 72.7 µM.

Consider `C(=C\C(SCc1ccccc1)SCc1ccccc1)/c1ccccc1`, for which the TGI in the test on A498 renal, in the test with A549 NSCLC, in the test on EKVX NSCLC, in the test with HCC-2998 colon, with HCT-15 colon and in the test with HL-60(TB) leukemia was over 10 µM throughout. For the same compound, the TGI with MALME-3M melanoma, in the test on MDA-MB-231 breast, in the test with MOLT-4 leukemia, with NCI-H522 lung, in the test with OVCAR-3 ovarian and in the test with RPMI-8226 leukemia was over 10 µM each time. Moreover, the TGI in the test with SF-539 CNS, with SW-620 colon, with U251 CNS and with UACC-257 melanoma was over 10 µM throughout.

As to `COc1ccc(C2S/C(=C\c3ccc(O)cc3)C(=O)N2NC(=O)Cc2ccccc2)cc1` (centres undefined), the TGI with A498 renal, in the test on A549 NSCLC, in the test on HCT-15 colon, with HL-60(TB) leukemia, in the test with MALME-3M melanoma and in the test with MOLT-4 leukemia was over 100 µM in each case. The TGI in the test with NCI-H522 lung, with RPMI-8226 leukemia, in the test with SF-539 CNS, in the test on SW-620 colon, in the test on U251 CNS and in the test with UACC-257 melanoma was over 100 µM throughout.

In the case of `CC1C[C@]2(C)C(=O)N(c3ccccc3)C(=N)[C@@H]2N(C)c2ccccc21` (some centres undefined), the TGI in the test with A498 renal, in the test on A549 NSCLC, in the test on EKVX NSCLC, in the test with HCC-2998 colon, in the test with HCT-15 colon and with HL-60(TB) leukemia was over 100 µM each time. The TGI in the test with MALME-3M melanoma, with MDA-MB-231 breast, with MOLT-4 leukemia, in the test on NCI-H522 lung, with OVCAR-3 ovarian and with RPMI-8226 leukemia was over 100 µM throughout. For the same compound, the concentration for total growth inhibition (TGI) with SF-539 CNS, in the test with SW-620 colon and in the test on UACC-257 melanoma was over 100 µM in each case.

The term TGI denotes the concentration at which net growth stops. High values mean lower sensitivity of the cells, low ones greater sensitivity of the cells. For orientation: GI50 means the concentration at which growth is held to half of that of the control.
